Measurements published in patent US4769369A, “Anti-allergy 1(2H)-phthalazinones” (Pennwalt Corporation, priority 1986, dated 1988).
Structures can show the parent of a compound that is named as a salt.

Experiments:
[1] = system: LTC4 induced contractions of the guinea pig ileum; experiment: Guinea Pig Ileum Test: inhibition of LTC4-induced guinea pig smooth muscle contractions; format: cell-based; details: Cavia porcellus, 6 nanomoles LTC4
Method: Four replicate, small pieces of guinea pig ileum were suspended in Kreb's physiological salt solution in a 10 ml tissue bath to a gram tension of approximately 1.0. These pieces of tissue were then chemically stimulated with 6 microliters of purified leukotriene C4 (LTC4) yielding a final concentration in the bath of 6 nanomoles. Responses (tissue contraction) were measured isometrically using a Harvard transducer and a Beckman recorder. Upon addition of the LTC4, the tissue was allowed to sit for approximately 15-30 minutes to reach maximal stimulation. The test compound dissolved in a maximum volume of 100 microliters of either saline, dimethylsulfoxide or ethanol was then added to the tissue preparation and the change in gram tension was recorded.

[2] = system: Active Anaphylaxis Response in Male, Sprague Dawley Rats; experiment: Rat Anaphylaxis Test (active anaphylaxis, paw edema); format: in vivo; details: for Paw Volume Mean ± S.E.: in mmHg (unit assumed)
Method: In the rat anaphylaxis test, groups consisting of 15-20 rats are intraperitoneally sensitized on day zero with 500 μg of bovine serum albumin-absorbed alum admixed with 2×10^10 killed Bordatella pertussis vaccine organisms. Fourteen days later, the test compound suspended in 0.5 to 1.0 ml of 1% Cleargel or saline (0.85% NaCl in H2 O) is administered ip or po and, one hour later, the right hind paw is injected subcutaneously with 100 μg of bovine serum albumin dissolved in 0.1 ml of saline. The paw volume is measured using a mercury plethysmometer prior to drug administration and 90 minutes post antigenic challenge. The present inhibition of edema is calculated as the difference in volume between the control and drug treated groups, divided by the control volume, and then multiplied times 100. The positive control drug, theophylline (90 mg/kg, po) is included in each assay. Statistical analysis of the data is done using an analysis of variance program. See Tables 2 and 3 for results obtained with this test.
In Tables 2 and 3, and elsewhere in this application, PR 948-257C stands for trans-6-[2-(4-methoxyphenyl)ethenyl]-2-[3-(dimethylamino)propyl]-phthalazin-1(2H)-one hydrobromide.

serotonin = experiment: Rat Allergic Mediator Induced Dermal Vascular Permeability Test, serotonin challenge; format: in vivo
Method: (§1) Ten minutes later, the animals are challenged by intradermally injecting 0.1 ml of a water solution of either serotonin (1 μg/ml), histamine (20 μg/ml) or bradykinin (10 μg/ml) into separate sites on the back. Five minutes following challenge the animals are killed, the skin retracted, and the mean diameter of the blue wheal and flare reaction is calculated as the difference in mean diameter between a saline control and the drug treated group, divided by the control diameter, and then multiplied times 100. Statistical analysis of the data is done using a Student T-test program. See Tables 4 (ip administration of test compound) and 5 (po administration of test compound) for results obtained with the rat allergic mediator induced dermal vascular permeability test. (Set: Serotonin; His: histamine; Bk: bradykinin)

bradykinin = experiment: Rat Allergic Mediator Induced Dermal Vascular Permeability Test, bradykinin challenge; format: in vivo
Method: as §1

histamine = experiment: Rat Allergic Mediator Induced Dermal Vascular Permeability Test, histamine challenge; format: in vivo
Method: as §1, with “See Tables 4 (ip administration of test compound) and 5 (po administration of test compound) for results obtained with the rat allergic mediator induced dermal vascular permeability test.” left out

[3] = Table 2, first group set, 90 mg/kg po, N 17
[4] = Table 2, second group set, 90 mg/kg po, N 20
[5] = Table 2, third group set, 90 mg/kg po, N 29
[6] = Table 4 (ip administration of test compound), 1 mg/kg
[7] = Table 5 (po administration of test compound), 1 mg/kg
[8] = Table 2, first group set, 50 mg/kg ip
[9] = Table 2, first group set, 75 mg/kg ip
[10] = Table 2, first group set, 100 mg/kg ip
[11] = Table 2, second group set, 6.25 mg/kg ip
[12] = Table 2, second group set, 12.5 mg/kg ip
[13] = Table 2, second group set, 25 mg/kg ip
[14] = Table 2, third group set, 2.5 mg/kg ip
[15] = Table 2, third group set, 4 mg/kg ip
[16] = Table 2, third group set, 6 mg/kg ip

Structure (SMILES): CN(C)CCn1ncc2cc(/C=C/c3ccc(O)cc3)ccc2c1=O [Example XIV, Trans-6-[2-(4-Hydroxyphenyl)ethenyl]-2-(2-dimethylaminoethyl)-1(2H)-phthalazinone hydrochloride]
- IC50 [1]: 31.6 µM

Structure (SMILES): COc1ccc(/C=C/c2ccc3c(=O)n(CCN(C)C)ncc3c2)cc1 [Example III, Trans-6-[2-(4-methoxyphenyl)ethenyl]-2-[2-(dimethylamino)ethyl]-phthalazin-1(2H)-one hydrobromide]
- IC50 [1]: 16.6 µM

Structure (SMILES): COc1ccc(/C=C/c2ccc3c(=O)n(CCN4CCOCC4)ncc3c2)cc1 [Example IV, Trans-6-[2-(4-methoxyphenyl)ethenyl]-2-(2-morpholinoethyl)phthalazin-1(2H)-one hydrobromide]
- IC50 [1]: 0.1 µM

Structure (SMILES): Cn1c(=O)c2[nH]cnc2n(C)c1=O [Theophylline, theophylline, reference compound]
- % Inhibition [2, 3]: 76%
- Paw Volume Mean ± S.E. [2, 3]: 0.9 ± 0.7
- % Inhibition [2, 4]: 92%
- Paw Volume Mean ± S.E. [2, 4]: 0.4 ± 0.6
- % Inhibition [2, 5]: 87%
- Paw Volume Mean ± S.E. [2, 5]: 0.5 ± 0.5
- % Inhibition ([2]; Table 3, 90 mg/kg po): 82%
- Paw Volume ± S.E. ([2]; Table 3, 90 mg/kg po): 0.65 ± .2 mm of Hg

Structure (SMILES): COc1ccc(CCc2ccc3c(=O)n(CCCN(C)C)ncc3c2)cc1 [Example VI, 6-[2-(4-methoxyphenyl)ethyl]-2-[3-(dimethylamino)propyl]phthalazin-1(2H)-on]
- IC50 [1]: 16.8 µM

Structure (SMILES): CSc1ccc(/C=C/c2ccc3c(=O)n(CCCN(C)C)ncc3c2)cc1 [Example XI, Trans-6-[2-[4-(methylthio)phenyl]ethenyl]-2-[3-(dimethylamino)propyl]phthalazin-1(2H)-one]
- IC50 [1]: 10 µM

Structure (SMILES): COc1ccc(/C=C/c2ccc3c(=O)n(CCCCN(C)C)ncc3c2)cc1 [Example IX, Trans-6-[2-(4-methoxyphenyl)ethenyl]-2-[4-dimethylamino)butyl]phthalazin-1(2H)-one bromide]
- IC50 [1]: 10 µM

Structure (SMILES): COc1ccc(/C=C\c2ccc3c(=O)n(CCCN(C)C)ncc3c2)cc1 [Example X, Cis-6-[2-(4-methoxyphenyl)ethenyl]-2-[3-dimethylaminopropyl]phthalazin-1(2H)-one cyclohexylsulfamate]
- IC50 [1]: 10.5 µM

Structure (SMILES): CN1CCC(=C2c3ccccc3C=Cc3ccccc32)CC1 [Cyproheptadine, cyproheptadine, reference compound]
- % Inhibition, Ser (serotonin; [6]): 74.8%
- Wheal Measurement, Ser (serotonin; [6]): 2.8 mm
- % Inhibition, Ser (serotonin; [7]): 95.1%
- Wheal Measurement, Ser (serotonin; [7]): 0.5 mm
- % Inhibition, Bk (bradykinin; [6]): 60.6%
- Wheal Measurement, Bk (bradykinin; [6]): 4.3 mm
- % Inhibition, Bk (bradykinin; [7]): 86.8%
- Wheal Measurement, Bk (bradykinin; [7]): 1.2 mm

Structure (SMILES): COc1ccc(/C=C/c2ccc3c(=O)n(CCCN4CCCCC4)ncc3c2)cc1 [Example II, Trans-6-[2-(4-methoxyphenyl)ethenyl]-2-(3-piperidinopropyl)phthalazin-1(2H)-one hydrobromide]
- IC50 [1]: 3.4 µM

Structure (SMILES): Br.COc1ccc(/C=C/c2ccc3c(=O)n(CCCN(C)C)ncc3c2)cc1 [Example XII, Trans-6-[2-(4-methoxyphenyl)ethenyl]-2-[3-(dimethylamino)propyl]-phthalazin-1(2H)-one hydrobromide]
- IC50 [1]: 13.6 µM
- % Inhibition [2, 8]: 56%
- Paw Volume Mean ± S.E. [2, 8]: 1.7 ± 1.3
- % Inhibition [2, 9]: 83%
- Paw Volume Mean ± S.E. [2, 9]: 0.7 ± 0.8
- % Inhibition [2, 10]: 91%
- Paw Volume Mean ± S.E. [2, 10]: 0.4 ± 0.8
- % Inhibition [2, 11]: 48%
- Paw Volume Mean ± S.E. [2, 11]: 2.2 ± 1.9
- % Inhibition [2, 12]: 52%
- Paw Volume Mean ± S.E. [2, 12]: 2.1 ± 1.8
- % Inhibition [2, 13]: 55%
- Paw Volume Mean ± S.E. [2, 13]: 1.9 ± 1.4
- % Inhibition [2, 14]: +11%
- Paw Volume Mean ± S.E. [2, 14]: 4.7 ± 2.8
- % Inhibition [2, 15]: +14%
- Paw Volume Mean ± S.E. [2, 15]: 4.9 ± 2.3
- % Inhibition [2, 16]: 12%
- Paw Volume Mean ± S.E. [2, 16]: 3.7 ± 2.6
- % Inhibition ([2]; Table 3, 50 mg/kg po): 14%
- Paw Volume ± S.E. ([2]; Table 3, 50 mg/kg po): 3.10 ± .55 mm of Hg
- % Inhibition ([2]; Table 3, 75 mg/kg po): 37%
- Paw Volume ± S.E. ([2]; Table 3, 75 mg/kg po): 2.26 ± .32 mm of Hg
- % Inhibition ([2]; Table 3, 100 mg/kg po): 54%
- Paw Volume ± S.E. ([2]; Table 3, 100 mg/kg po): 1.65 ± .36 mm of Hg
- % Inhibition, Ser (serotonin; Table 4, 12.5 mg/kg ip): 26.1%
- Wheal Measurement, Ser (serotonin; Table 4, 12.5 mg/kg ip): 8.2 mm
- % Inhibition, Ser (serotonin; Table 4, 25 mg/kg ip): 51.4%
- Wheal Measurement, Ser (serotonin; Table 4, 25 mg/kg ip): 5.4 mm
- % Inhibition, Ser (serotonin; Table 4, 50 mg/kg ip): 68.5%
- Wheal Measurement, Ser (serotonin; Table 4, 50 mg/kg ip): 3.5 mm
- % Inhibition, Ser (serotonin; Table 5, 12.5 mg/kg po): 23.3%
- Wheal Measurement, Ser (serotonin; Table 5, 12.5 mg/kg po): 7.9 mm
- % Inhibition, Ser (serotonin; Table 5, 25 mg/kg po): 42.7%
- Wheal Measurement, Ser (serotonin; Table 5, 25 mg/kg po): 5.9 mm
- % Inhibition, Ser (serotonin; Table 5, 50 mg/kg po): 61.1%
- Wheal Measurement, Ser (serotonin; Table 5, 50 mg/kg po): 4.0 mm
- % Inhibition, His (histamine; Table 4, 12.5 mg/kg ip): 26.8%
- Wheal Measurement, His (histamine; Table 4, 12.5 mg/kg ip): 8.2 mm
- % Inhibition, His (histamine; Table 4, 25 mg/kg ip): 50.0%
- Wheal Measurement, His (histamine; Table 4, 25 mg/kg ip): 5.6 mm
- % Inhibition, His (histamine; Table 4, 50 mg/kg ip): 75.9%
- Wheal Measurement, His (histamine; Table 4, 50 mg/kg ip): 2.7 mm
- % Inhibition, His (histamine; Table 5, 12.5 mg/kg po): 17%
- Wheal Measurement, His (histamine; Table 5, 12.5 mg/kg po): 8.3 mm
- % Inhibition, His (histamine; Table 5, 25 mg/kg po): 57%
- Wheal Measurement, His (histamine; Table 5, 25 mg/kg po): 4.3 mm
- % Inhibition, His (histamine; Table 5, 50 mg/kg po): 71%
- Wheal Measurement, His (histamine; Table 5, 50 mg/kg po): 2.9 mm
- % Inhibition, Bk (bradykinin; Table 4, 12.5 mg/kg ip): 32.1%
- Wheal Measurement, Bk (bradykinin; Table 4, 12.5 mg/kg ip): 7.4 mm
- % Inhibition, Bk (bradykinin; Table 4, 25 mg/kg ip): 47.7%
- Wheal Measurement, Bk (bradykinin; Table 4, 25 mg/kg ip): 5.7 mm
- % Inhibition, Bk (bradykinin; Table 4, 50 mg/kg ip): 74.3%
- Wheal Measurement, Bk (bradykinin; Table 4, 50 mg/kg ip): 2.8 mm
- % Inhibition, Bk (bradykinin; Table 5, 12.5 mg/kg po): 12.1%
- Wheal Measurement, Bk (bradykinin; Table 5, 12.5 mg/kg po): 8.0 mm
- % Inhibition, Bk (bradykinin; Table 5, 25 mg/kg po): 48.4%
- Wheal Measurement, Bk (bradykinin; Table 5, 25 mg/kg po): 4.7 mm
- % Inhibition, Bk (bradykinin; Table 5, 50 mg/kg po): 63.8%
- Wheal Measurement, Bk (bradykinin; Table 5, 50 mg/kg po): 3.3 mm
